Data set [1] deals with endogenous MuSCs in tibialis anterior (TA) muscles. As to the kind of experiment: BLI of endogenous MuSC expansion after intramuscular bupivacaine/dmPGE2 (Example 4). It counts as in vivo, mouse. Particulars: 0.125%, 0.25% or 0.5% BPV in combination with 10 μg dmPGE2, two weeks after injection. Here is the method:
Double-transgenic Pax7^CreERT2;Rosa26-LSL-Luc mice were generated by crossing Pax7^CreERT2 mice and Rosa26-LSL-Luc mice obtained from Jackson Laboratory (Stock #005125). These genotypes were validated by appropriate PCR-based strategies. All mice from transgenic and wild-type strains were of young age (2-4 months). All experiments were conducted using age and gender-matched controls. As depicted in the experimental scheme shown in FIG. 23A, mice were treated with five consecutive daily intraperitoneal injections of tamoxifen to activate luciferase expression under the control of the Pax7 promoter. A week after the last tamoxifen injection, the tibialis anterior (TA) muscles were injected intramuscularly with 50 μL of a drug mixture containing 0.125%, 0.25%, or 0.5% bupivacaine (BPV) (Cayman Chemical Cat #16618) and 10 μg 16,16-dimethyl prostaglandin E2 (dmPGE2; Tocris, Catalog #4027) using a 30 gauge needle on a Hamilton syringe. The contralateral TA received 50 μL of a mixture containing 0.5% bupivacaine (BPV) and DMSO vehicle as baseline sham control. Bioluminescence was assayed at days 3, 7, 10 and 14 post-injury.
Bioluminescence imaging (BLI) was performed using a Xenogen-100 system, as previously described. Briefly, mice were anesthetized using isofluorane inhalation and administered 120 μL D-luciferin (0.1 mmol/kg, reconstituted in PBS; Caliper LifeSciences) by intraperitoneal injection. BLI was acquired with between 5-60 second exposure at F-stop=1.0 at 5 minutes after luciferin injection. Digital images were recorded and analyzed using Living Image software (Caliper LifeSciences). Images were analyzed with a consistent region-of-interest (ROI) placed over each hindlimb to calculate a bioluminescence signal. A bioluminescence signal was calculated in radiance (p s^−1 cm^−2 sr^−1) value of 10^4 to define a positive threshold signal over background. BLI imaging was performed bi-weekly for 2 weeks after coinjection of BPV with dmPGE2 or vehicle.
The data in FIGS. 23A-C and 24 are shown as the mean±s.e.m. with n=6 mice. […]

For data set [2] the following is noted: published, FDA approved dose range; cited from earlier work.

In the case of `CCCCN1CCCCC1C(=O)Nc1c(C)cccc1C` (centres unmarked) [bupivacaine], the “muscle regeneration (fold change in BLI) vs BPV dose” value in data set [1] was “dose-dependent increase in muscle regeneration”. The NOAEL (in general, the highest tested level that showed no adverse finding) in data set [2] is reported as 0.5%.
